Each molecule was assayed against T1, HCV-NS5b (Hepatitis C virus genotype 1b, UniProt Q9WMX2) (assay: HCV-NS5b enzyme assay using homopolymer substrate). Conditions: not given.
T1 construct: (His)6 (C); made in house; host or cells: XL-1 cells (E. coli), IPTG-inducible plasmid
Type: biochemical
Source text: The coding sequence of NS5b protein was cloned by PCR from pFKI389luc/NS3-3′/ET as described by Lohmann, V., et al. (1999) Science 285, 110-113 using the primers shown on page 266 of WO 2005/012288
The cloned fragment is missing the C terminus 21 amino acid residues. The cloned fragment was inserted into an IPTG-inducible (isopropyl-β-D-thiogalactopyranoside) expression plasmid that provides an epitope tag (His)6 at the carboxy terminus of the protein.
The recombinant enzyme was expressed in XL-1 cells and after induction of expression, the protein was purified using affinity chromatography on a nickel-NTA (nitrilotriacetic acid) column. Storage condition was 10 mM Tris-HCl pH 7.5, 50 mM NaCl, 0.1 mM EDTA (ethylenediaminetetraacetic acid), 1 mM DTT (dithiothreotol), 20% glycerol at −20° C.
The polymerase activity was assayed by measuring incorporation of radiolabeled UTP into a RNA product using a biotinylated, homopolymeric template. The template was formed by annealing adenosine homopolymer to uridine 20-mer capped with a 5′-biotin group (biotin-U^20) in the ratio of 1:4. Typically, the assay mixture (50 μL) contained 25 mM Tris-HCl (pH 7.5), 40 mM KCl, 0.3 mM MgCl2, 0.05 mM EDTA, 0.2 unit/μL Superase RNAse Inhibitor, 5 mM DTT, 30 μM UTP (Uridine triphosphate), including [^3H]-UTP (uridine triphosphate) at 0.4 μCi/μL with final concentration of 1 μM, and 50 nM of homopolymeric template. Test compounds were initially dissolved in 100% DMSO and further diluted in aqueous buffer containing 5% DMSO. Typically, compounds were tested at concentrations between 2 nM and 50 μM. Reactions were started with addition of enzyme and allowed to continue at 30° C. for 90 minutes. Reactions were quenched with 8 μL of 100 mM EDTA and reaction mixtures (30 μL) were transferred to streptavidin-coated scintillation proximity microtiter plates (FlashPlates) and incubated at room temperature overnight. Incorporation of radioactivity was determined by scintillation counting.
Inhibitor IC50 values were determined by adding test compound as ten point, two-fold serial dilutions in 100% DMSO with a final reaction concentration of 5%. IC50 was calculated by plotting the % inhibition against compound concentration and fitting the data to a constrained four parameter sigmoidal curve, equivalent to the “four parameter logistic equation”:
Where Bottom is the minimum Y value, Top is the maximum Y value, and Hillslope is the slope of the linear portion of the semi-log curve. Top and Bottom were constrained to values of 0% and 100%, respectively. These analyses were performed using Graphpad Prism v.4.0 (Graphpad Software, Inc.) in conjunction with DS Accord for EXCEL 6.0 (Accelrys, Microsoft Corp.).
The table below lists the IC50 values of compounds determined using the homopolymer substrates.

Compound | IC50 [nM]
O=C(O)c1ccc2c(C3CCCCC3)c3n(c2c1)CCCn1cc(C(=O)C(=O)N2CCCCC2)c2cccc-3c21 [Compound 114] | 89
CN1CCN(C(=O)C(=O)c2cn3c4c(cccc24)-c2c(C4CCCCC4)c4ccc(C(=O)O)cc4n2CCC3)CC1 [Compound 123] | 155

Same assay, conditions: homopolymer substrate, [3H]-UTP incorporation, 30° C., 90 minutes; read-out: IC50

Compound | IC50 [nM]
O=C(O)c1ccc2c(C3CCCCC3)c3n(c2c1)CC(CO)Cn1ccc2cccc-3c21 (racemic) [Compound 377] | 280
O=C(O)c1ccc2c(C3CCCCC3)c3n(c2c1)CCCCn1cc(CN2CCCCC2)c2cccc-3c21 [Compound 105] | 131
O=C(O)c1ccc2c(C3CCCCC3)c3n(c2c1)CCCn1cc(CN2CCCCO2)c2cccc-3c21 [Compound 116] | 138
O=C(O)c1ccc2c(C3CCCCC3)c3n(c2c1)CCCn1cc(CN2CCC(F)(F)CC2)c2cccc-3c21 [Compound 127] | 290
O=C(O)c1ccc2c(C3CCCCC3)c3n(c2c1)CCCn1cc(CNC2CC2)c2cccc-3c21 [Compound 131] | 208
CCC(CC)NCc1cn2c3c(cccc13)-c1c(C3CCCCC3)c3ccc(C(=O)O)cc3n1CCC2 [Compound 132] | 223
CN(C)CCc1cn2c3c(cccc13)-c1c(C3CCCCC3)c3ccc(C(=O)O)cc3n1CCC2 [Compound 214] | 278
CCN(C)Cc1cn2c3c(cccc13)-c1c(C3CCCCC3)c3ccc(C(=O)O)cc3n1CCC2 [Compound 337] | 1290
C=C1Cn2cc(CN3CCCCC3)c3cccc(c32)-c2c(C3CCCCC3)c3ccc(C(=O)O)cc3n2C1 [Compound 341] | 135
O=C(O)c1ccc2c(C3CCCCC3)c3n(c2c1)CCCn1ccc2c(F)ccc-3c21 [Compound 344] | 133
O=C(O)c1ccc2c(C3CCCCC3)c3n(c2c1)CCCn1cc(CN2CCCCC2)c2c(F)ccc-3c21 [Compound 345] | 127
CCN(C)Cc1cn2c3c(ccc(F)c13)-c1c(C3CCCCC3)c3ccc(C(=O)O)cc3n1CCC2 [Compound 347] | 122
CN1CCN(Cc2cn3c4c(ccc(F)c24)-c2c(C4CCCCC4)c4ccc(C(=O)O)cc4n2CCC3)CC1 [Compound 348] | 143
CSCCNCc1cn2c3c(cccc13)-c1c(C3CCCCC3)c3ccc(C(=O)O)cc3n1CCC2 [Compound 358] | 153
O=C(O)c1ccc2c(C3CCCCC3)c3n(c2c1)CCCn1cc(CN2CCCC(O)C2)c2cccc-3c21 (stereo not drawn) [Compound 359] | 155
O=C(O)c1ccc2c(C3CCCCC3)c3n(c2c1)CCCn1cc(CNC2CCOCC2)c2cccc-3c21 [Compound 360] | 149
CCN(Cc1cn2c3c(cccc13)-c1c(C3CCCCC3)c3ccc(C(=O)O)cc3n1CCC2)C(C)C [Compound 361] | 176
COCCN(CCOC)Cc1cn2c3c(cccc13)-c1c(C3CCCCC3)c3ccc(C(=O)O)cc3n1CCC2 [Compound 362] | 337
O=C(O)c1ccc2c(C3CCCCC3)c3n(c2c1)CCCn1cc(CN(CCO)CCO)c2cccc-3c21 [Compound 363] | 124
CC1CCC(NCc2cn3c4c(cccc24)-c2c(C4CCCCC4)c4ccc(C(=O)O)cc4n2CCC3)CC1 (stereo not drawn) [Compound 364] | 277
CCCNCc1cn2c3c(cccc13)-c1c(C3CCCCC3)c3ccc(C(=O)O)cc3n1CCC2 [Compound 366] | 121

The remaining lines, values ahead:

IC50 [nM] | Compound
120 | CCN1CCN(Cc2cn3c4c(cccc24)-c2c(C4CCCCC4)c4ccc(C(=O)O)cc4n2CCC3)CC1 [Compound 356]
119 | CCN(CC)Cc1cn2c3c(ccc(F)c13)-c1c(C3CCCCC3)c3ccc(C(=O)O)cc3n1CCC2 [Compound 346]
118 | O=C(O)c1ccc2c(C3CCCCC3)c3n(c2c1)CCCn1cc(CCN2CCCCC2)c2cccc-3c21 [Compound 204]
114 | O=C(O)c1ccc2c(C3CCCCC3)c3n(c2c1)CCCn1cc(CN2CCCCC2)c2cccc-3c21 [Compound 119]
114 | COC1CCCN(Cc2cn3c4c(cccc24)-c2c(C4CCCCC4)c4ccc(C(=O)O)cc4n2CCC3)C1 (stereo not drawn) [Compound 124]
113 | CC1CN(Cc2cn3c4c(cccc24)-c2c(C4CCCCC4)c4ccc(C(=O)O)cc4n2CCC3)CC(C)O1 (stereo not drawn) [Compound 330]
111 | CC1CCCN(Cc2cn3c4c(cccc24)-c2c(C4CCCCC4)c4ccc(C(=O)O)cc4n2CCC3)C1 (stereo not drawn) [Compound 130]
110 | O=C(O)c1ccc2c(C3CCCCC3)c3n(c2c1)CCCn1cc(CN2CC[C@H](F)C2)c2cccc-3c21 [Compound 354]
109 | CN(C)Cc1cn2c3c(cccc13)-c1c(C3CCCCC3)c3ccc(C(=O)O)cc3n1CCCC2 [Compound 112]
109 | O=C(O)c1ccc2c(C3CCCCC3)c3n(c2c1)CCCn1cc(CN2CCCC(F)C2)c2cccc-3c21 (stereo not drawn) [Compound 353]
108 | CC1CCN(Cc2cn3c4c(cccc24)-c2c(C4CCCCC4)c4ccc(C(=O)O)cc4n2CCC3)CC1 [Compound 117]
106 | CN(C)Cc1cn2c3c(cccc13)-c1c(C3CCCCC3)c3ccc(C(=O)O)cc3n1CCC2 [Compound 111]
101 | O=C(O)c1ccc2c(C3CCCCC3)c3n(c2c1)CCCn1cc(CN2CCSCC2)c2cccc-3c21 [Compound 128]
98 | O=C(O)c1ccc2c(C3CCCCC3)c3n(c2c1)CCn1cc(CCN2CCCCC2)c2cccc-3c21 [Compound 349]
96 | CC(C)NCc1cn2c3c(cccc13)-c1c(C3CCCCC3)c3ccc(C(=O)O)cc3n1CCC2 [Compound 110]
96 | O=C(O)c1ccc2c(C3CCCCC3)c3n(c2c1)CCCn1cc(CN2CC[C@@H](F)C2)c2cccc-3c21 [Compound 126]
96 | CCN(C)Cc1cn2c3c(cccc13)-c1c(C3CCCCC3)c3ccc(C(=O)O)cc3n1CCC2 [Compound 129]

IC50 [nM] | Compound
89 | O=C(O)c1ccc2c(C3CCCCC3)c3n(c2c1)CCCn1cc(CN2CCC(F)CC2)c2cccc-3c21 [Compound 352]
88 | CC(=O)N1CCN(Cc2cn3c4c(cccc24)-c2c(C4CCCCC4)c4ccc(C(=O)O)cc4n2CCC3)CC1 [Compound 365]
87 | COC1CCN(Cc2cn3c4c(cccc24)-c2c(C4CCCCC4)c4ccc(C(=O)O)cc4n2CCC3)CC1 [Compound 115]
85 | CCN(CC)Cc1cn2c3c(cccc13)-c1c(C3CCCCC3)c3ccc(C(=O)O)cc3n1CCC2 [Compound 120]
84 | O=C(O)c1ccc2c(C3CCCCC3)c3n(c2c1)CCCn1cc(CN2CCC2)c2cccc-3c21 [Compound 113]
83 | CN(C)Cc1cn2c3c(cccc13)-c1c(C3CCCCC3)c3ccc(C(=O)O)cc3n1CC2 [Compound 108]
79 | CN(C)C1CCN2CCn3c(c(C4CCCCC4)c4ccc(C(=O)O)cc43)-c3cccc1c32 (stereo not drawn) [Compound 285, 15-Cyclohexyl-4-(dimethylamino)-5,6,8,9-tetrahydro-4H-indolo[1′,2′:4,5][1,4]diazepino[6,7,1-ij]quinoline-12-carboxylic acid]
68 | CN1CCN(Cc2cn3c4c(cccc24)-c2c(C4CCCCC4)c4ccc(C(=O)O)cc4n2CCC3)CC1 [Compound 125]
65 | CC(C)NC1CCN2CCn3c(c(C4CCCCC4)c4ccc(C(=O)O)cc43)-c3cccc1c32 (stereo not drawn) [Compound 276]
65 | CCN(CC)Cc1cn2c3c(cccc13)-c1c(C3CCCCC3)c3ccc(C(=O)O)cc3n1CC2 [Compound 350]
59 | O=C(O)c1ccc2c(C3CCCCC3)c3n(c2c1)CCN1CCC(NC2CCOCC2)c2cccc-3c21 (stereo not drawn) [Compound 282]
56 | CCCNC1CCN2CCn3c(c(C4CCCCC4)c4ccc(C(=O)O)cc43)-c3cccc1c32 (stereo not drawn) [Compound 277]
56 | CCN(C)Cc1cn2c3c(cccc13)-c1c(C3CCCCC3)c3ccc(C(=O)O)cc3n1CC2 [Compound 351]
51 | O=C(O)c1ccc2c(C3CCCCC3)c3n(c2c1)CCn1cc(CN2CCOCC2)c2cccc-3c21 [Compound 122]
49 | O=C(O)c1ccc2c(C3CCCCC3)c3n(c2c1)CCCn1cc(CN2CCCC2)c2cccc-3c21 [Compound 121]
48 | O=C(O)c1ccc2c(C3CCCCC3)c3n(c2c1)CCn1cc(CN2CCCCC2)c2cccc-3c21 [Compound 118]
19 | O=C(O)c1ccc2c(C3CCCCC3)c3n(c2c1)CCCn1cc(CN2CCOCC2)c2cccc-3c21 [Compound 107]

From patent US20090197856A1, “ANTIVIRAL COMPOUNDS” (Genelabs Technologies, Inc., priority 2007, published 2009)
